pIC50: −log10 of the molar value. Entries after “also recorded” stand apart in the source; their conditions may differ. Where two headings read alike, the source gives them in different places.
Experiments:
[1] = Compound cytotoxicity assay (WST-1) in HCT-8 cells; type: cell-based, human; conditions: human; HCT-8 cells, 24 h, WST-1
Protocol: Compound cytotoxicity assay. […] A colorimetric assay using the cell proliferation reagent WST-1 (Roche, USA) for the quantification of cell viability was performed. […] When the cells were confluent, the old medium was replaced with fresh medium with or without varying concentrations of chemical compound. After 24 h of culture, 10 μl of the cell proliferation reagent WST-1, (for quantification of cell viability) was added to each well, mixed and the plates incubated for 1 h at 37 C with 5% CO2 in the dark. […] Molecular Devices, USA).

Cryptosporidium parvum = experiment: In vitro anti-Cryptosporidium effect in HCT-8 cells (immunofluorescence assay); type: cell-based; conditions: for pIC50: Cryptosporidium parvum, HCT-8 cells
Protocol: In vitro testing of the anti-Cryptosporidium effect of CpLDH inhibitors. HCT-8 cells were cultured in supplemented RPMI-1640 medium in 96-well plates. When the cells were confluent, old medium was replaced with fresh medium. To one set of wells, varying concentrations of recombinant CpLDH inhibitors (reconstituted in DMSO and diluted in RPMI medium) were added, while another set was left without inhibitors. Paromomycin was used as a positive control drug reconstituted in distilled sterile water. Then, 4×10^4 freshly excysted sporozoites were added to each well and incubated at 37° C. with 5% CO2. After 2 h incubation, varying concentrations of CpLDH inhibitors were added to the set of infected cells that were not treated initially. Control infected cells without inhibitors, but with added DMSO volumes equivalent to those used in the wells with inhibitors, were included. The cells were maintained in culture for a total of either 48 h or 72 h and processed for immunofluorescence assay as previously described (Int. J. Parasitol. 2017; 47(13), 867-874). Briefly, medium was decanted, and the cells fixed with methanol-acetic acid (9:1) for 2 minutes at room temperature. The cells were rehydrated and permeabilized by two successive washes with buffer (0.1% Triton X-100, 0.35 M NaCl, 0.13 M Tris-base, pH 7.6) and blocked with 5% normal goat serum, followed by staining with antibody to C. parvum (SporoGlo; Waterborn, Inc.) overnight at 4° C. The stained cells were washed twice with PBS, followed by water, and then imaged with an inverted fluorescence microscope. Fluorescence quantification was done using ImageJ version 1.37v software (NIH). Assays were performed in triplicate and repeated at least thrice.

C. parvum = experiment: Histopathology of distal small intestine of C. parvum infected mice; type: in vivo, Cryptosporidium parvum; conditions: lower small intestine, H&E, NSC158011 400 mg/kg, NSC10447 250, 500 or 1000 mg/kg, paromomycin 100 mg/kg
Protocol: In vivo testing of the anti-Cryptosporidium effect of CpLDH inhibitors. Gamma interferon knockout mice (B6.129S7-Ifng), 8 weeks of age, were purchased from Charles River, USA. The care and use of the mice was done following the guidelines of protocol number 17024 approved by the University of Illinois at Urbana-Champaign, USA. The animals were allowed to acclimatize for 1 week before experiments commenced. Stock solutions of recombinant CpLDH inhibitors reconstituted in DMSO were diluted in sterile distilled water to reduce the final amount of DMSO in the solution to less than 1% (v/v) before administering them to mice. Prior to testing the anti-Cryptosporidium effect of the inhibitors in mice, the tolerability of each inhibitor was tested by oral gavage using varying dosages (100-2000 mg/kg body weight) of each inhibitor in groups of mice (three mice for each dose) daily for 7 days. Mice were observed daily for signs of toxicity including changes from normal physical activity, respiration, body temperature, feeding, posture, fur condition or occurrence of death. […] The subsequent dosages of NSC10447 used in the mice infection assays were 250, 500 and 1000 mg/kg mouse body weight, while the NSC158011 dosages used were 100, 200 and 400 mg/kg mouse body weight. Mice were allocated to groups as follows: “Infected plus inhibitor treatment”; “Infected minus inhibitor treatment”; “Uninfected minus inhibitor treatment” and “Infected plus paromomycin treatment”. Each group contained at least three mice. Each mouse in the infection groups received 5,000 C. parvum oocysts (resuspended in 50 μl of PBS) by oral gavage. Mice were housed individually in cages lined with sterile gauze as bedding. […] An equivalent volume of PBS containing a cocktail of penicillin (100 units/ml), streptomycin (100 μg/ml), chloramphenicol (34 μg/ml) and amphotericin (0.25 μg/ml) was added to the fecal samples and stored at 4° C. until use for quantification of C. parvum genomic DNA load. […]

In the case of `O=C1c2ccccc2C(=O)c2c(O)c(O)cc(O)c21` [NSC10447], the IC50 at 24 h [1] was 290 µM, the “effect on C. parvum proliferation in initial screen” value (Cryptosporidium parvum; 48 h post-infection, concentrations at least 50% lower than cytotoxicity IC50) was “significantly (P<0.05) inhibit C. parvum proliferation” and the pIC50 (Cryptosporidium parvum; 48 h, compound added at the time of infection, read-out: IC50, inhibition of C. parvum growth at 48 h p.i.) was 4.14. It also gave a pIC50 (Cryptosporidium parvum; 72 h, compound added at the time of infection, read-out: IC50, inhibition of C. parvum growth at 72 h p.i.) of 4.08, a pIC50 (Cryptosporidium parvum; compound added 2 h post-infection, read-out: IC50, inhibition of C. parvum growth at 48 h p.i. (2 h)) of 4.10 and a pIC50 (Cryptosporidium parvum; compound added 2 h post-infection, read-out: IC50, inhibition of C. parvum growth at 72 h p.i. (2 h)) of 4.02. The “histopathology of intestinal epithelium and villi” value (C. parvum) was “prevented villous atrophy and maintained the integrity of the intestinal mucosa; also recorded: intact intestinal epithelium with prominent villi”.

From patent US20250387359A1, “COMPOUNDS AND METHODS FOR THE TREATMENT OF PARASITIC INFECTIONS” (THE BOARD OF TRUSTEES OF THE UNIVERSITY OF ILLINOIS, priority 2019, published 2025)
